From patent EP0678516B1, “Preparation of 2-bromo-5-(2-bromo-2-nitrovinyl)-furan and its use as microcide” (CENTRO DE BIOACTIVOS QUIMICOS DE LA UNIVERSIDAD CENTRAL DE …, priority 1994, dated 1995)

How the values were obtained:
[1] = system: Bovine infectious queratoconjunctivitis; assay: Clinical test, external treatment of eye infections in animals; type: in vivo; conditions: Cows (PE), small scale controlled clinical test
Source text: (§1) The effectiveness of the active principle against bacterial eye diseases in: 9435 animal eyes affected with queratoconjunctivitis; 8093 of cattle and 1342 of other species (sheep, rabbits, dogs, horses, pigs, cats, guinea-pigs and birds).
(§2) In some cases the result of the medicament was compared with others habitually used for these treatments.
(§3) Read: 1 = Bovine infectious queratoconjunctivitis (PE) = small scale or clinical test in conditions controlled on a small scale (U) = ointment (I) = injectable n = number of eyes treated P± = Average of treatment for clinical recuperation (weighted average) Rc = clinical recuperation 2 = conjunctivitis 3 = Querratitis 4= Queratoconjunctivitis 5= Blefaritis 6= general eye infection 7= clinical extension or test compared in conditions of extension (*) = Massive application in therapeutic survey in the new different animal species (G-1) = refers to 2-bromo-5-(2-bromo-2-nitro-vinyl)-furan

[2] = system: conjunctivitis and Blefaritis; assay: as above; type: in vivo; conditions: Rabbits
Source text: as §1, §2, §3

[3] = system: conjunctivitis, Querratitis, Queratoconjunctivitis; assay: as above; type: in vivo; conditions: Dogs
Source text: as §1, §2, §3

[4] = system: Bovine infectious queratoconjunctivitis; assay: Clinical test, external treatment of eye infections in animals (extension); type: in vivo; conditions: Cattle (E)
Source text: as §1, §2, §3

[5] = system: septic puerperal metritis; assay: Treatment of septic puerperal metritis; type: in vivo, female oxes; conditions: G-1 1.5% oil solution intrauterine, Tetracycline abdominal aorta route
Description: The treatment consisted in applying 40 ml for three consecutive days at intervals of 24 hours from the diagnosis of the disease process. Treatment was compared with intrasoric tetracyclin.

[6] = system: Streptococcus agalactiae and Staphylococcus aureus; assay: Intracisternal treatment of clinical mastitis; type: in vivo, femal oxes
Source text: The active principle in a concentration of 0.1 % is applied by intracisternal route daily for three consecutive days in femal oxes clinically affected by mastitis of morbid catarrh purulen course types, in which the isolated micro-organisms were Streptococcus agalactiae and Staphylococcus aureus. As a control medicament the mammary infusion of neomicine was used.

O=C(N[C@H](CO)[C@H](O)c1ccc([N+](=O)[O-])cc1)C(Cl)Cl [Chloran-fenicol-(I), Chloran-fenicol]
P± (Average of treatment for clinical recuperation, weighted average) [1]: 3.1ab
Re (clinical recuperation) [1]: 80.6ba %

O=C(N[C@H](CO)[C@H](O)c1ccc([N+](=O)[O-])cc1)C(Cl)Cl [Chloran-fenicol-(U), Chloran-fenicol]
P± (Average of treatment for clinical recuperation, weighted average) [2]: 3.2a
P± (Average of treatment for clinical recuperation, weighted average) [3]: 7.3b
Re (clinical recuperation) [3]: 81.5a %
P± (Average of treatment for clinical recuperation, weighted average) [4]: 3.4a
Re (clinical recuperation) [4]: 86.6a %

CN(C)[C@@H]1C(O)=C(C(N)=O)C(=O)[C@@]2(O)C(O)=C3C(=O)c4c(O)cccc4[C@@](C)(O)[C@H]3C[C@@H]12 [Tetracycline, reference compound]
Recuperated n ([5]; 27 females, 19 females): 13
IIA (Artificial insemination index) [5]: 1.78± 1.99b
Recuperated % [5]: 68.4%
T-R (Average of treatment interval of clinical recuperation) [5]: 39 days
IIA (Artificial insemination index) ([5]; listed as tetracycline): 1.78 ± 1.99

neomicine [reference compound]
Recuperated n (affected parts) ([6]; G-I 0.1% intracisternal daily for three days (57 parts), neomicine mammary infusion (12 parts)): 12
Recuperated % (clinical recuperation of the affected parts) ([6]; G-I 0.1% intracisternal daily for three days, neomicine mammary infusion): 100%
